The results in this text go back to patent US20100063047A1 (KALYPSYS, INC., priority 2008, published 2010).

The target of one assay is T1, human H4 (Homo sapiens, UniProt Q9H3N8).
T1 construct: host or cells: CHO-K1, also expressing mitochondrion-targeted aequorin and human Gα16
Description: In vitro histamine H4 receptor cell-based aequorin bioluminescence antagonist assay. The conditions noted are these: CHO-K1 cells expressing human H4, aequorin and Gα16; histamine at EC80. The procedure, abridged: (§1)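 CHO-K1 cells stably expressing human H1 or H4 plus mitochondrial aequorin (H4 also with Gα16), loaded with 5 μM coelenterazine-h for 4 h at ~21 °C. Compounds preincubated 15 min at room temperature, then histamine at EC80 added.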

For a further assay, the target named is T2, human H1 (Homo sapiens, UniProt P35367).
T2 construct: host or cells: CHO-K1, also expressing mitochondrion-targeted aequorin
The assay can be described thus: In vitro histamine H1 receptor cell-based aequorin bioluminescence antagonist assay. Particulars: CHO-K1 cells expressing human H1 and aequorin; histamine at EC80; read-out: H1 Antagonist EC50. The procedure, abridged:
as §1

T2 sequence (P35367 whole entry): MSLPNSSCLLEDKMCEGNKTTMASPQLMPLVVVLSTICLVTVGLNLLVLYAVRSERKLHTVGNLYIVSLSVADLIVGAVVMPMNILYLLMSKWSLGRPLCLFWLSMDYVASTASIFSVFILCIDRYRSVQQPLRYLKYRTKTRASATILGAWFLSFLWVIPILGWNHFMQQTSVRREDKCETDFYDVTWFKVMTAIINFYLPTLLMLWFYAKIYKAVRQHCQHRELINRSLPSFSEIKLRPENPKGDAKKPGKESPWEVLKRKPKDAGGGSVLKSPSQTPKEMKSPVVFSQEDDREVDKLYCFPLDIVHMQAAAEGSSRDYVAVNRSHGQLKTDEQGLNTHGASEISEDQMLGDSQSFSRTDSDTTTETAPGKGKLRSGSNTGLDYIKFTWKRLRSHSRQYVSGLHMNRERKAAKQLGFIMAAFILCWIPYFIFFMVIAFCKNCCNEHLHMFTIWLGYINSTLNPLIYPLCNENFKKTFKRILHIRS
T1 sequence (Q9H3N8 whole entry): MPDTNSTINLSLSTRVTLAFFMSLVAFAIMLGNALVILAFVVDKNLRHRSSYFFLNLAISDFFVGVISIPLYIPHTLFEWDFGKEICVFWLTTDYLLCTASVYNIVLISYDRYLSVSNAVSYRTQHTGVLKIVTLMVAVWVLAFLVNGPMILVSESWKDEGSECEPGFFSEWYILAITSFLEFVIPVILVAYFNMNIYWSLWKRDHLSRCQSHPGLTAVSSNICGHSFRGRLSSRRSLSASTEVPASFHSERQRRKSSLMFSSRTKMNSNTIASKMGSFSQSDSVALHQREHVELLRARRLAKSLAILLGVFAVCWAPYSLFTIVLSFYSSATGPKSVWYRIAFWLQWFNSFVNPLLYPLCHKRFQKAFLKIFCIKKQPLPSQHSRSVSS

For the compound `Cc1csc2ncnc(NCc3ccc(N(C)C)cc3)c12` [Example 170, N-{[4-(dimethylamino)phenyl]methyl}-5-methylthieno[2,3-d]pyrimidin-4-amine], the EC50 on human H4 and on human H1 was over 10 µM throughout.
For the compound `Cc1csc2ncnc(N3CCN(c4cccc(Cl)c4)CC3)c12` [Example 265, 1-(3-chlorophenyl)-4-{5-methylthieno[2,3-d]pyrimidin-4-yl}piperazine], the EC50 on human H4 and on human H1 was over 10 µM in each case.
With `Cc1csc2ncnc(N(CCCO)Cc3ccccn3)c12` [Example 237, 3-({5-methylthieno[2,3-d]pyrimidin-4-yl}(pyridin-2-ylmethyl)amino)propan-1-ol], the concentration for a half-maximal effect (EC50) on human H4 and on human H1 was over 10 µM in each case.
As for `C#CCNc1ncnc2scc(C)c12` [Example 51, 5-methyl-N-(prop-2-yn-1-yl)thieno[2,3-d]pyrimidin-4-amine], the EC50 on human H4 and at human H1 was over 10 µM in each case.
On to `Cc1csc2ncnc(CNCc3ccc(Cl)cc3)c12` [Example 35, N-(4-chlorobenzyl)-1-(5-methylthieno[2,3-d]pyrimidin-4-yl)methanamine], for which the EC50 at human H4 and at human H1 was over 10 µM in each case.
As to `CCN(CCCCO)c1ncnc2scc(C)c12` [Example 207, 4-[ethyl({5-methylthieno[2,3-d]pyrimidin-4-yl})amino]butan-1-ol], the EC50 at human H4 and at human H1 was over 10 µM in each case.
On to `Cc1csc2ncnc(N(C)C(Cc3ccccc3)c3ccccc3)c12` (stereo not drawn) [Example 278, N-(1,2-diphenylethyl)-N,5-dimethylthieno[2,3-d]pyrimidin-4-amine], for which the EC50 at human H4 and at human H1 was over 10 µM each time.
As to `CCN(c1ncnc2scc(C)c12)C(C)C` [Example 186, N-ethyl-5-methyl-N-(propan-2-yl)thieno[2,3-d]pyrimidin-4-amine], the EC50 at human H4 and on human H1 was over 10 µM in each case.
For `Cc1csc2ncnc(NCCN3CCOCC3)c12` [Example 109, 5-methyl-N-[2-(morpholin-4-yl)ethyl]thieno[2,3-d]pyrimidin-4-amine], the EC50 on human H4 and at human H1 was over 10 µM throughout.
For the compound `Cc1csc2ncnc(N3C[C@@H](C)N[C@@H](C)C3)c12` [Example 203, (3R,5S)-3,5-dimethyl-1-{5-methylthieno[2,3-d]pyrimidin-4-yl}piperazine], the half-maximal effective concentration (EC50) on human H4 and on human H1 was over 10 µM each time.
With `C=CCN(c1ncnc2scc(C)c12)C1CCCCC1` [Example 223, N-cyclohexyl-5-methyl-N-(prop-2-en-1-yl)thieno[2,3-d]pyrimidin-4-amine], the EC50 at human H4 and at human H1 was over 10 µM throughout.
As to `Cc1csc2ncnc(N3CCN(c4ccccc4Cl)CC3)c12` [Example 3, 4-(4-(2-chlorophenyl)piperazin-1-yl)-5-methylthieno[2,3-d]pyrimidine], the EC50 on human H4 and on human H1 was over 10 µM in each case.
Turning to `Cc1csc2ncnc(N3CCN(c4ccc(C(C)(C)C)cc4)CC3)c12` [Example 284, 1-(4-tert-butylphenyl)-4-{5-methylthieno[2,3-d]pyrimidin-4-yl}piperazine], the EC50 at human H4 and at human H1 was over 10 µM in each case.
As to `CCN(CCO)c1ncnc2scc(C)c12` [Example 188, 2-[ethyl({5-methylthieno[2,3-d]pyrimidin-4-yl})amino]ethan-1-ol], the EC50 on human H4 and at human H1 was over 10 µM each time.
As to `COc1cc(CN(C)c2ncnc3scc(C)c23)cc(OC)c1OC` [Example 276, N,5-dimethyl-N-[(3,4,5-trimethoxyphenyl)methyl]thieno[2,3-d]pyrimidin-4-amine], the 50% effective concentration (EC50) at human H4 and on human H1 was over 10 µM throughout.
Turning to `Cc1csc2ncnc(N(C)CCC#N)c12` [Example 184, 3-[methyl({5-methylthieno[2,3-d]pyrimidin-4-yl})amino]propanenitrile], the EC50 at human H4 and at human H1 was over 10 µM in each case.
As for `C#CCN(C)c1ncnc2scc(C)c12` [Example 180, N,5-dimethyl-N-(prop-2-yn-1-yl)thieno[2,3-d]pyrimidin-4-amine], the EC50 at human H4 and on human H1 was over 10 µM in each case.
Consider `COc1ccc(CNc2ncnc3scc(C)c23)cc1O` [Example 171, 2-methoxy-5-[({5-methylthieno[2,3-d]pyrimidin-4-yl}amino)methyl]phenol], for which the EC50 on human H4 and on human H1 was over 10 µM each time.
`Cc1csc2ncnc(N3CCSCC3)c12` [Example 197, 4-{5-methylthieno[2,3-d]pyrimidin-4-yl}thiomorpholine]: the EC50 on human H4 and at human H1 was over 10 µM in each case.
Regarding `CCN(CC)c1ncnc2scc(C)c12` [Example 181, N,N-diethyl-5-methylthieno[2,3-d]pyrimidin-4-amine], the EC50 on human H4 and on human H1 was over 10 µM throughout.
On to `Cc1cnc(CNc2ncnc3scc(C)c23)cn1` [Example 101, 5-methyl-N-[(5-methylpyrazin-2-yl)methyl]thieno[2,3-d]pyrimidin-4-amine], for which the EC50 on human H4 and at human H1 was over 10 µM each time.
Regarding `COCCNc1ncnc2scc(C)c12` [Example 64, N-(2-methoxyethyl)-5-methylthieno[2,3-d]pyrimidin-4-amine], the 50% effective concentration (EC50) on human H4 and on human H1 was over 10 µM in each case.
`Cc1csc2ncnc(N3CCN(C(=O)OC(C)(C)C)C[C@H]3CO)c12` [Example 283, tert-butyl (3S)-3-(hydroxymethyl)-4-{5-methylthieno[2,3-d]pyrimidin-4-yl}piperazine-1-carboxylate]: the half-maximal effective concentration (EC50) at human H4 and on human H1 was over 10 µM in each case.
In the case of `Cc1csc2ncnc(NCCC3CCCN3C)c12` (stereo not drawn) [Example 106, 5-methyl-N-[2-(1-methylpyrrolidin-2-yl)ethyl]thieno[2,3-d]pyrimidin-4-amine], the EC50 on human H4 and at human H1 was over 10 µM throughout.
Take `COc1cc2c(cc1OC)CN(c1ncnc3scc(C)c13)CC2` [Example 286, 6,7-dimethoxy-2-{5-methylthieno[2,3-d]pyrimidin-4-yl}-1,2,3,4-tetrahydroisoquinoline]: the EC50 on human H4 and at human H1 was over 10 µM in each case.
For the compound `Cc1csc2ncnc(NCCN3CCCC3)c12` [Example 92, 5-methyl-N-[2-(pyrrolidin-1-yl)ethyl]thieno[2,3-d]pyrimidin-4-amine], the EC50 at human H4 and on human H1 was over 10 µM in each case.
On to `Cc1csc2ncnc(N3Cc4ccccc4C3)c12` [Example 208, 2-{5-methylthieno[2,3-d]pyrimidin-4-yl}-2,3-dihydro-1H-isoindole], for which the EC50 on human H4 and at human H1 was over 10 µM in each case.
`Cc1csc2ncnc(N3CCN(C4CCCCC4)CC3)c12` [Example 239, 1-cyclohexyl-4-{5-methylthieno[2,3-d]pyrimidin-4-yl}piperazine]: the EC50 on human H4 and at human H1 was over 10 µM throughout.
Regarding `Cc1csc2ncnc(N(CCC#N)Cc3cccnc3)c12` [Example 232, 3-({5-methylthieno[2,3-d]pyrimidin-4-yl}(pyridin-3-ylmethyl)amino)propanenitrile], the EC50 on human H4 and on human H1 was over 10 µM each time.
As to `Cc1csc2ncnc(NC3CONC3=O)c12` (stereo not drawn) [Example 80, 4-({5-methylthieno[2,3-d]pyrimidin-4-yl}amino)-1,2-oxazolidin-3-one], the EC50 on human H4 and on human H1 was over 10 µM throughout.
As to `Cc1csc2ncnc(N(C)CCO)c12` [Example 183, 2-[methyl({5-methylthieno[2,3-d]pyrimidin-4-yl})amino]ethan-1-ol], the EC50 on human H4 and at human H1 was over 10 µM in each case.
For `Cc1csc2ncnc(N3CC(C)CC(C)C3)c12` (stereo not drawn) [Example 199, 3,5-dimethyl-1-{5-methylthieno[2,3-d]pyrimidin-4-yl}piperidine], the EC50 at human H4 and at human H1 was over 10 µM each time.
For the compound `Cc1csc2ncnc(N(C)CC(O)c3ccccc3)c12` (stereo not drawn) [Example 227, 2-[methyl({5-methylthieno[2,3-d]pyrimidin-4-yl})amino]-1-phenylethan-1-ol], the EC50 on human H4 and at human H1 was over 10 µM throughout.
As to `COc1ccc(C(=O)CNc2ncnc3scc(C)c23)cc1` [Example 174, 1-(4-methoxyphenyl)-2-({5-methylthieno[2,3-d]pyrimidin-4-yl}amino)ethan-1-one], the EC50 on human H4 and at human H1 was over 10 µM in each case.
Turning to `Cc1csc2ncnc(N3CCN(c4ccc(F)cc4F)CC3)c12` [Example 267, 1-(2,4-difluorophenyl)-4-{5-methylthieno[2,3-d]pyrimidin-4-yl}piperazine], the EC50 on human H4 and on human H1 was over 10 µM throughout.
For the compound `Cc1csc2ncnc(N(CCO)[C@H](C)c3ccccc3)c12` [Example 236, 2-({5-methylthieno[2,3-d]pyrimidin-4-yl}[(1R)-1-phenylethyl]amino)ethan-1-ol], the EC50 at human H4 and at human H1 was over 10 µM throughout.
As to `Cc1csc2ncnc(NC(C)CO)c12` (stereo not drawn) [Example 63, 2-({5-methylthieno[2,3-d]pyrimidin-4-yl}amino)propan-1-ol], the EC50 at human H4 and at human H1 was over 10 µM throughout.
On to `Cc1csc2ncnc(NCCN(C)C)c12` [Example 70, dimethyl[2-({5-methylthieno[2,3-d]pyrimidin-4-yl}amino)ethyl]amine], for which the concentration giving a half-maximal response (EC50) at human H4 and at human H1 was over 10 µM in each case.
Turning to `Cc1csc2ncnc(N(C)C3CCCCC3)c12` [Example 200, N-cyclohexyl-N,5-dimethylthieno[2,3-d]pyrimidin-4-amine], the EC50 on human H4 and on human H1 was over 10 µM throughout.
